US8337891B2, “Enteric coated composition comprising prostaglandin analogs as chloride channel opener” (Sucampo AG, priority 2003, dated 2012)

Experiments:
[1] = ratio of monocyclic/bicyclic tautomer in pH2 solvent by 1H-NMR; assay type: physicochemical
Procedure: The compound 1 (bicyclic structure, solid) was dissolved in D2O—CD3OD(1:1), which was adjusted to pH 2 with DCl. The ratio of monocyclic tautomer/bicyclic tautomer of compound 1 in the pH2 solvent was determined with ^1H-NMR.
According to the same manner described in the test example 2, the ratio of monocyclic tautomer/bicyclic tautomer of compound 2 in pH2 solvent was determined by ^1H-NMR.

[2] = tautomeric form of the solid compound; assay type: physicochemical; conditions: provided as a solid compound

CCCCC(F)(F)[C@@]1(O)CC[C@H]2[C@@H](CC(=O)[C@@H]2CCCCCCC(=O)O)O1 [Compound 1, 13,14-dihydro-15-keto-16,16-difluoro-PGE1]
Ratio of monocyclic tautomer (%) ([1]; D2O-CD3OD (1:1) adjusted to pH 2 with DCl, 1H-NMR, starting from solid bicyclic tautomer): 8.5%
compound converted into the monocyclic tautomer ([1]; pH2 solvent, bicyclic ring opened): more than 5%
proportion of the compound existing as the bicyclic structure [2]: ~100%
